Results published in PubChem BioAssay (NCI).
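In this assay, cells in 96-well plates receive the compound at five concentrations for 48 hours. Endpoints are linearly interpolated between the surrounding concentrations. Definition used: TGI = concentration required for complete inhibition of growth.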

Tests used:
Assay in all cases: NCI anticancer screen, dose series, 48 h
RXF 393 renal = tested on: RXF 393 renal
RPMI-8226 leukemia = tested on: RPMI-8226 leukemia
COLO 205 colon = tested on: COLO 205 colon
UACC-257 melanoma = tested on: UACC-257 melanoma
DU-145 prostate = tested on: DU-145 prostate
CCRF-CEM leukemia = tested on: CCRF-CEM leukemia
MDA-MB-231 breast = tested on: MDA-MB-231 breast
PC-3 prostate = tested on: PC-3 prostate
UO-31 renal = tested on: UO-31 renal
LOX IMVI melanoma = tested on: LOX IMVI melanoma
MDA-MB-435 = tested on: MDA-MB-435
OVCAR-4 ovarian = tested on: OVCAR-4 ovarian
OVCAR-8 ovarian = tested on: OVCAR-8 ovarian
U251 CNS = tested on: U251 CNS
NCI-H460 lung = tested on: NCI-H460 lung
786-0 renal = tested on: 786-0 renal
K-562 leukemia = tested on: K-562 leukemia
SK-OV-3 ovarian = tested on: SK-OV-3 ovarian
SK-MEL-2 melanoma = tested on: SK-MEL-2 melanoma
HCT-116 colon = tested on: HCT-116 colon
HS 578T breast = tested on: HS 578T breast
T-47D breast = tested on: T-47D breast
A498 renal = tested on: A498 renal
SF-539 CNS = tested on: SF-539 CNS
CAKI-1 renal = tested on: CAKI-1 renal
HCT-15 colon = tested on: HCT-15 colon
HT29 colon = tested on: HT29 colon
SNB-75 CNS = tested on: SNB-75 CNS
SNB-19 CNS = tested on: SNB-19 CNS
NCI-H226 lung = tested on: NCI-H226 lung
SW-620 colon = tested on: SW-620 colon
TK-10 renal = tested on: TK-10 renal
SF-268 CNS = tested on: SF-268 CNS
HOP-62 NSCLC = tested on: HOP-62 NSCLC
HL-60(TB) leukemia = tested on: HL-60(TB) leukemia
IGROV1 ovarian = tested on: IGROV1 ovarian
NCI/ADR-RES ovarian = tested on: NCI/ADR-RES ovarian
KM12 colon = tested on: KM12 colon
SR leukemia = tested on: SR leukemia
SK-MEL-28 melanoma = tested on: SK-MEL-28 melanoma
EKVX NSCLC = tested on: EKVX NSCLC
HOP-92 NSCLC = tested on: HOP-92 NSCLC
SF-295 CNS = tested on: SF-295 CNS
UACC-62 melanoma = tested on: UACC-62 melanoma
M14 melanoma = tested on: M14 melanoma
MCF7 breast = tested on: MCF7 breast
HCC-2998 colon = tested on: HCC-2998 colon
SK-MEL-5 melanoma = tested on: SK-MEL-5 melanoma
A549 NSCLC = tested on: A549 NSCLC
NCI-H23 lung = tested on: NCI-H23 lung
SN12C renal = tested on: SN12C renal
NCI-H522 lung = tested on: NCI-H522 lung
MALME-3M melanoma = tested on: MALME-3M melanoma
ACHN renal = tested on: ACHN renal
OVCAR-5 ovarian = tested on: OVCAR-5 ovarian
MOLT-4 leukemia = tested on: MOLT-4 leukemia

Structure (SMILES): O=C1CC(c2ccccc2Cl)Oc2ccccc21 (configuration not stated)
- TGI (RXF 393 renal): 63.5 µM
- TGI (RPMI-8226 leukemia): 40.7 µM
- TGI (COLO 205 colon): 68.2 µM
- TGI (UACC-257 melanoma): > 100 µM
- TGI (DU-145 prostate): > 100 µM
- TGI (CCRF-CEM leukemia): > 100 µM
- TGI (MDA-MB-231 breast): 47.4 µM
- TGI (PC-3 prostate): > 100 µM
- TGI (UO-31 renal): > 100 µM
- TGI (LOX IMVI melanoma): > 100 µM
- TGI (MDA-MB-435): 43.7 µM
- TGI (OVCAR-4 ovarian): > 100 µM
- TGI (OVCAR-8 ovarian): 87.1 µM
- TGI (U251 CNS): 83 µM
- TGI (NCI-H460 lung): > 100 µM
- TGI (786-0 renal): 89.5 µM
- TGI (K-562 leukemia): 40.8 µM
- TGI (SK-OV-3 ovarian): > 100 µM
- TGI (SK-MEL-2 melanoma): 59.9 µM
- TGI (HCT-116 colon): > 100 µM
- TGI (HS 578T breast): > 100 µM
- TGI (T-47D breast): > 100 µM
- TGI (A498 renal): > 100 µM
- TGI (SF-539 CNS): 34.8 µM
- TGI (CAKI-1 renal): > 100 µM
- TGI (HCT-15 colon): 61 µM
- TGI (HT29 colon): 22.7 µM
- TGI (SNB-75 CNS): > 100 µM
- TGI (SNB-19 CNS): > 100 µM
- TGI (NCI-H226 lung): 30.1 µM
- TGI (SW-620 colon): 67.5 µM
- TGI (TK-10 renal): > 100 µM
- TGI (SF-268 CNS): > 100 µM
- TGI (HOP-62 NSCLC): 91.1 µM
- TGI (HL-60(TB) leukemia): > 100 µM
- TGI (IGROV1 ovarian): > 100 µM
- TGI (NCI/ADR-RES ovarian): 48.8 µM
- TGI (KM12 colon): 81.7 µM
- TGI (SR leukemia): 50.9 µM
- TGI (SK-MEL-28 melanoma): > 100 µM
- TGI (EKVX NSCLC): > 100 µM
- TGI (HOP-92 NSCLC): 75.2 µM
- TGI (SF-295 CNS): > 100 µM
- TGI (UACC-62 melanoma): > 100 µM
- TGI (M14 melanoma): > 100 µM
- TGI (MCF7 breast): 45.4 µM
- TGI (HCC-2998 colon): > 100 µM
- TGI (SK-MEL-5 melanoma): > 100 µM

Structure (SMILES): O=C(N=C1N(c2ccccc2)C(=O)C(=O)N1c1ccccc1)c1ccccc1
- TGI (RXF 393 renal): 13.5 µM
- TGI (RPMI-8226 leukemia): 74.9 µM
- TGI (COLO 205 colon): 30 µM
- TGI (UACC-257 melanoma): > 100 µM
- TGI (DU-145 prostate): 43.5 µM
- TGI (CCRF-CEM leukemia): > 100 µM
- TGI (MDA-MB-231 breast): 18.6 µM
- TGI (PC-3 prostate): 50.6 µM
- TGI (UO-31 renal): 29 µM
- TGI (LOX IMVI melanoma): 13.6 µM
- TGI (MDA-MB-435): 99.2 µM
- TGI (OVCAR-4 ovarian): 13.3 µM
- TGI (OVCAR-8 ovarian): 29.6 µM
- TGI (U251 CNS): 24.4 µM
- TGI (A549 NSCLC): 20.2 µM
- TGI (NCI-H460 lung): 25.8 µM
- TGI (NCI-H23 lung): 33.6 µM
- TGI (786-0 renal): 12.5 µM
- TGI (K-562 leukemia): > 100 µM
- TGI (SK-OV-3 ovarian): 19.6 µM
- TGI (SK-MEL-2 melanoma): 36.9 µM
- TGI (HCT-116 colon): 14.4 µM
- TGI (HS 578T breast): 27.2 µM
- TGI (T-47D breast): 56.5 µM
- TGI (A498 renal): 39.9 µM
- TGI (SN12C renal): 24.1 µM
- TGI (SF-539 CNS): 26.6 µM
- TGI (CAKI-1 renal): 31.4 µM
- TGI (HCT-15 colon): 22.4 µM
- TGI (NCI-H522 lung): 6.23 µM
- TGI (HT29 colon): 40.9 µM
- TGI (SNB-75 CNS): 25.1 µM
- TGI (MALME-3M melanoma): 38.4 µM
- TGI (SNB-19 CNS): 28.1 µM
- TGI (NCI-H226 lung): 29.2 µM
- TGI (SW-620 colon): 28.4 µM
- TGI (ACHN renal): 14.3 µM
- TGI (TK-10 renal): 33.2 µM
- TGI (SF-268 CNS): 50.5 µM
- TGI (HOP-62 NSCLC): 23.7 µM
- TGI (HL-60(TB) leukemia): > 100 µM
- TGI (OVCAR-5 ovarian): > 100 µM
- TGI (IGROV1 ovarian): 23.5 µM
- TGI (NCI/ADR-RES ovarian): 25.8 µM
- TGI (KM12 colon): 46.9 µM
- TGI (SR leukemia): 41.4 µM
- TGI (MOLT-4 leukemia): > 100 µM
- TGI (SK-MEL-28 melanoma): 38.1 µM
- TGI (EKVX NSCLC): 32.1 µM
- TGI (HOP-92 NSCLC): 20.8 µM
- TGI (SF-295 CNS): 25.3 µM
- TGI (UACC-62 melanoma): 30.2 µM
- TGI (HCC-2998 colon): 23.3 µM
- TGI (SK-MEL-5 melanoma): 32 µM
